Experimental data reported in article PMC8286840, “Identifying SARS-CoV-2 antiviral compounds by screening for small molecule inhibitors of Nsp3 papain-like protease” (Biochemical Journal, 2021).
Where a name gives a salt, the structure may show the parent alone. Read-outs that look alike come from different tables or passages of the source.

Experiments:
[1] = target: T1, SARS-CoV-2 PLpro (nsp3 1564–1878) (Severe acute respiratory syndrome coronavirus 2, UniProt P0DTD1); assay: biochemical; design: FRET-quenched peptide (Pro3) cleavage by PLpro, 10 min pre-incubation, slope over 20 min, normalised to no-compound control; conditions: low concentration screen, read-out: % of control remaining
[2] = target: T1, SARS-CoV-2 PLpro (nsp3 1564–1878); assay: biochemical; design: FRET-quenched peptide (Pro3) cleavage by PLpro, 10 min pre-incubation, slope over 20 min, normalised to no-compound control; conditions: high concentration screen, read-out: % of control remaining

SMILES: O=c1cc(CO)occ1O [5-hydroxy-2-(hydroxymethyl)-4H-pyran-4-one]
- remaining activity at 1.25 µM ([1]; Well no.=5437): 109%
- remaining activity at 3.75 µM ([2]; Well no.=5437): 113%

SMILES: CCCCCC(O)CCCC(=O)O (stereo not drawn) [5-hydroxydecanoic acid sodium]
- remaining activity at 1.25 µM ([1]; Well no.=714): 88.7%
- remaining activity at 3.75 µM ([2]; Well no.=714): 85.9%

SMILES: COC(=O)C1=C(C#N)NC(C)=C(C(=O)OC(C)C)C1c1cccc([N+](=O)[O-])c1 (stereo not drawn) [5-isopropyl 3-methyl 2-cyano-6-methyl-4-(3-nitrophenyl)-1,4-dihydro-3,5-pyridinedicarboxylate]
- remaining activity at 1.25 µM ([1]; Well no.=6056): 94%
- remaining activity at 3.75 µM ([2]; Well no.=6056): 89.3%

SMILES: C[n+]1c2ccccc2nc2ccccc21 [5-methylphenazin-5-ium methyl sulfate]
- remaining activity at 1.25 µM ([1]; Well no.=5668): 91.9%
- remaining activity at 3.75 µM ([2]; Well no.=5668): 89.8%

SMILES: CC(C)c1cccc(C(C)C)c1N1C(=O)c2ccc(O)cc2C1=O [5HPP-33]
- remaining activity at 1.25 µM ([1]; Well no.=6085): 101%
- remaining activity at 3.75 µM ([2]; Well no.=6085): 99.4%

SMILES: CC(=O)[C@H]1CC[C@H]2[C@@H]3CC[C@H]4CC(=O)CC[C@]4(C)[C@H]3CC[C@]12C [5a-Pregnane-3,20-dione]
- remaining activity at 1.25 µM ([1]; Well no.=7357): 106%
- remaining activity at 3.75 µM ([2]; Well no.=7357): 105%

SMILES: C[C@]12CC[C@@H](O)C[C@@H]1CC[C@@H]1[C@@H]2CC[C@]2(C)[C@@H](O)CC[C@@H]12 [5alpha-Androstane-3alpha,17beta-diol]
- remaining activity at 1.25 µM ([1]; Well no.=244): 98.9%
- remaining activity at 3.75 µM ([2]; Well no.=244): 94.8%

SMILES: O=c1[nH]c2ccccc2c2ccccc12 [6(5H)-Phenanthridinone]
- remaining activity at 1.25 µM ([1]; Well no.=1305): 104%
- remaining activity at 3.75 µM ([2]; Well no.=1305): 107%

SMILES: CCCCCCCCCCC/C=C/CCCCC(=O)O [6(E)-Octadecenoic acid]
- remaining activity at 1.25 µM ([1]; Well no.=4318): 105%
- remaining activity at 3.75 µM ([2]; Well no.=4318): 99.5%

SMILES: CC/C=C\C/C=C\C/C=C\C/C=C\CCCCC(=O)O [6(Z), 9(Z), 12(Z), 15(Z)-Octadecatetraenoic acid]
- remaining activity at 1.25 µM ([1]; Well no.=4398): 101%
- remaining activity at 3.75 µM ([2]; Well no.=4398): 97.4%

SMILES: CCCCC/C=C\C/C=C\C/C=C\CCCCC(=O)O [6(Z), 9(Z), 12(Z)-Octadecatrienoic Acid]
- remaining activity at 1.25 µM ([1]; Well no.=4360): 107%
- remaining activity at 3.75 µM ([2]; Well no.=4360): 107%

SMILES: CCCCCCCCCCC/C=C\CCCCC(=O)O [6(Z)-Octadecenoic acid]
- remaining activity at 1.25 µM ([1]; Well no.=4316): 103%
- remaining activity at 3.75 µM ([2]; Well no.=4316): 98.8%

SMILES: NC1CCc2cc(O)c(O)cc2C1 (stereo not drawn) [6,7-ADTN hydrobromide]
- remaining activity at 1.25 µM ([1]; Well no.=444): 101%
- remaining activity at 3.75 µM ([2]; Well no.=444): 104%

SMILES: O=c1cc(-c2ccccc2)oc2cc(O)c(O)cc12 [6,7-Dihydroxyflavone]
- remaining activity at 1.25 µM ([1]; Well no.=3441): 100%
- remaining activity at 3.75 µM ([2]; Well no.=3441): 98.9%

SMILES: Fc1cc(F)c2c(c1)C1C=CCC1C(c1cccnc1)N2 (stereo not drawn) [6,8-difluoro-4-(3-pyridinyl)-3a,4,5,9b-tetrahydro-3H-cyclopenta[c]quinoline]
- remaining activity at 1.25 µM ([1]; Well no.=5390): 97.2%
- remaining activity at 3.75 µM ([2]; Well no.=5390): 91.3%

SMILES: CC(=O)N[C@H]1CN2CC[C@H](O)[C@@H]2[C@@H](O)[C@@H]1O [6-Acetamido-6-deoxy-castanospermine]
- remaining activity at 1.25 µM ([1]; Well no.=3294): 97.4%
- remaining activity at 3.75 µM ([2]; Well no.=3294): 99.3%

SMILES: NCCCCCC(=O)O [6-Aminohexanoic acid]
- remaining activity at 1.25 µM ([1]; Well no.=6): 101%
- remaining activity at 3.75 µM ([2]; Well no.=6): 102%

SMILES: C[C@H](O)[C@H](O)c1cnc2nc(N)[nH]c(=O)c2n1 [6-Biopterin]
- remaining activity at 1.25 µM ([1]; Well no.=6447): 99.6%
- remaining activity at 3.75 µM ([2]; Well no.=6447): 95.8%

SMILES: COc1cc2c(CCNC(C)=O)c[nH]c2cc1Cl [6-Chloromelatonin]
- remaining activity at 1.25 µM ([1]; Well no.=89): 98.5%
- remaining activity at 3.75 µM ([2]; Well no.=89): 101%

SMILES: NCC(O)c1cc(O)c(O)cc1F (stereo not drawn) [6-Fluoronorepinephrine hydrochloride]
- remaining activity at 1.25 µM ([1]; Well no.=227): 97.7%
- remaining activity at 3.75 µM ([2]; Well no.=227): 97%

SMILES: O=Cc1c2[nH]c3ccccc3c2cc2[nH]c3ccccc3c12 [6-Formylindolo [3,2-B] carbazole]
- remaining activity at 1.25 µM ([1]; Well no.=4507): 90.7%
- remaining activity at 3.75 µM ([2]; Well no.=4507): 97.6%

SMILES: O=c1cc(-c2ccccc2)oc2ccc(O)cc12 [6-Hydroxyflavone (6-HF)]
- remaining activity at 1.25 µM ([1]; Well no.=8104): 98.9%
- remaining activity at 3.75 µM ([2]; Well no.=8104): 98.5%

SMILES: COc1cc2c(CCNC(C)=O)c[nH]c2cc1O [6-Hydroxymelatonin]
- remaining activity at 1.25 µM ([1]; Well no.=654): 95.9%
- remaining activity at 3.75 µM ([2]; Well no.=654): 96.7%

SMILES: CN1[C@@H]2CC(=O)C[C@H]1[C@H](O)C2 [6-Hydroxytropinone]
- remaining activity at 1.25 µM ([1]; Well no.=3639): 99.8%
- remaining activity at 3.75 µM ([2]; Well no.=3639): 104%

SMILES: CCCCCCCCC(=O)NCc1cc(OC)c(O)cc1I [6-Iodonordihydrocapsaicin]
- remaining activity at 1.25 µM ([1]; Well no.=5963): 95.9%
- remaining activity at 3.75 µM ([2]; Well no.=5963): 99%

SMILES: CC(C)CCC[C@@H](C)[C@H]1CC[C@H]2[C@@H]3CC(=O)[C@H]4C[C@@H](O)CC[C@]4(C)[C@H]3CC[C@]12C [6-Ketocholestanol]
- remaining activity at 1.25 µM ([1]; Well no.=6021): 94.9%
- remaining activity at 3.75 µM ([2]; Well no.=6021): 86.6%

SMILES: Cc1cccc(C#Cc2ccccc2)n1 [6-Methyl-2-(phenylethynyl)pyridine hydrochloride]
- remaining activity at 1.25 µM ([1]; Well no.=834): 98.2%
- remaining activity at 3.75 µM ([2]; Well no.=834): 95%

SMILES: O=Nc1ccc2oc(=O)ccc2c1 [6-Nitroso-1,2-benzopyrone]
- remaining activity at 1.25 µM ([1]; Well no.=1099): 95.7%
- remaining activity at 3.75 µM ([2]; Well no.=1099): 104%

SMILES: OC[C@H]1O[C@@H](n2cnc3c(=S)nc[nH]c32)[C@H](O)[C@@H]1O [6-_Thioinosine]
- remaining activity at 1.25 µM ([1]; Well no.=7724): 99.8%
- remaining activity at 3.75 µM ([2]; Well no.=7724): 96.5%

SMILES: Cc1ccc2c(c1)C1(CCN(CCc3nc(-c4ccccc4)oc3C)CC1)OC(=O)N2 [6-methyl-1'-(2-(5-methyl-2-phenyloxazol-4-yl)ethyl)spiro[benzo[d][1,3]oxazine-4,4'-piperidin]-2(1H)-one]
- remaining activity at 1.25 µM ([1]; Well no.=5915): 93.5%
- remaining activity at 3.75 µM ([2]; Well no.=5915): 93.6%

SMILES: Nc1nc2ccccc2c2ccccc12 [6-phenanthridinamine]
- remaining activity at 1.25 µM ([1]; Well no.=5389): 106%
- remaining activity at 3.75 µM ([2]; Well no.=5389): 102%

SMILES: CN(C)CCSSCCNC(=O)C1CCN(C(=O)CSc2ccc(Cl)cc2)CC1 [6H05 (trifluoroacetate)]
- remaining activity at 1.25 µM ([1]; Well no.=6658): 103%
- remaining activity at 3.75 µM ([2]; Well no.=6658): 106%

SMILES: CCCCCCCCCCC/C=C/CCCCCC(=O)O [7(E)-Nonadecenoic acid]
- remaining activity at 1.25 µM ([1]; Well no.=4366): 105%
- remaining activity at 3.75 µM ([2]; Well no.=4366): 97.4%

SMILES: CCCCCCCCCCC/C=C\CCCCCC(=O)O [7(Z)-Nonadecenoic acid]
- remaining activity at 1.25 µM ([1]; Well no.=4364): 107%
- remaining activity at 3.75 µM ([2]; Well no.=4364): 100%

SMILES: CCCCCCCCCCC/C=C\C(C)(C)/C=C\CCCC(=O)O [7,7-Dimethyleicosadienoic acid]
- remaining activity at 1.25 µM ([1]; Well no.=4313): 101%
- remaining activity at 1.25 µM ([1]; Well no.=4412): 100%
- remaining activity at 3.75 µM ([2]; Well no.=4313): 99.2%
- remaining activity at 3.75 µM ([2]; Well no.=4412): 101%
